Laboratory results from patent US8268961B2, “Antibacterial peptides and analogues thereof” (Universita Degli Studi di Siena, priority 2004, dated 2012).
Converted amounts (≈) assume the structure as drawn. Read-outs that look alike come from different tables or passages of the source. Positions of bridges follow the written chain, without caps; N, C: chain ends. Residues, ends and D or L forms follow the SMILES beside them. Chains are numbered I, II in the order given. No end group written: not given here.

Experiments:
[1] = test system: Pichia pastoris yeast strain X33; assay: Effect on Pichia pastoris yeast colonies; format: cell-based; details: Pichia pastoris X33, data not shown
Procedure: To a volume of 50 μl of culture of Pichia pastoris grown 24 hour at 30° C. in YPD (Yeast Extract/Peptone/Dextrose) medium, 50 μl of MAP peptides (2 mg/ml) were added and left in incubation 150 min at 37° C. Subsequently, 50 μl of each incubation were plated on YPD solid medium and it was allowed to grow for 48 hours at 30° C. The number of colonies grown was compared with a control, where the yeast was not treated with the MAP.

[2] = test system: human keratinocytes HaCaT; assay: Cytotoxicity test by MTT; format: cell-based; details: up to 1 mg/ml
Procedure: (§1) For cytotoxicity tests, different cell lines were used: murine myeloma cells SPO, hamster ovary epithelium cells CHO K 1, murine macrophage cells J774 A.1 and human keratinocytes HaCaT. The cells were plated in medium in RPMI 1640 (SPO and CHO K 1) and DMEM (J774 A.1 and HaCaT) with antibiotics and bovine foetal serum at 10%, in 96-well plates at the concentration of 6×10^4 (SPO, CHO K1 and J774 A.1) and 3×10^4 (HaCaT). Peptides, previously filtered with a 0.2 μm filter disk (Whatman), were added at various concentrations to the different cell lines and left in incubation over night at 37° C. Cell viability was determined adding the MTT tetrazolium salt at the concentration of 0.5 mg/ml and incubating for 90 min. The cells were solubilised with a solution at pH 4.5 containing SDS 10% and dimethylformamide 45% and read at the dual wavelength of 595/650 nm with a plate reader.

human erythrocytes = assay: Haemolysis, Parpart erythrocyte osmotic resistance assay; format: cell-based; details: 19 hours incubation, 125 μg/ml
Procedure: The haemolytic activity of M5 and M6 was also evaluated and is represented FIG. 9. Haemolysis of fresh human erythrocytes was determined at peptide concentrations ranging from 1 to 125 μg/ml. […] By contrast, after 19 hours of incubation, the haemolysis induced by M6 and M5 at 125 μg/ml is 7% and 19%, respectively. The percentage of haemolysis of untreated blood after 19 hours (control) is very limited (<1%).
The haemolytic activity of the KIRVRLSA [SEQ ID NO: 3] (M5) and […] [SEQ ID NO: 4] (M6) peptides was evaluated by the Parpart erythrocyte osmotic resistance assay in NaCl. The percentage of haemolysis was calculated by means of a calibration curve obtained incubating the erythrocytes with increasing concentrations of NaCl and measuring the absorbance increase, due to haemolysis, at 540 nm. 0.9% NaCl solutions containing the MAP peptides at different concentrations were then prepared, whereto was added human blood in the ratio of 1:100 (v/v). The samples were left at ambient temperature for 30 min and 19 hours; subsequently, a portion was drawn for each incubation, centrifuged at 1500 rpm for 5 min and the absorbance of the super was measured with the spectrophotometer at 540 nm.

[3] = test system: Pseudomonas aeruginosa ATCC27853; format: cell-based; details: Pseudomonas aeruginosa ATCC27853, reference strain
Source text: (§2) MIC is defined as the lowest concentration, in an antibiotic dilution range, that inhibits visible bacterial growth. The importance of MIC sensitivity test is based on the principle that in vitro sensitivity provides a predictive indication of the in vivo efficacy of the antibiotic therapy. Values are expressed as molar concentration and compared to MIC values obtained with commercially available antibiotics such as amikacin, ceftriaxone and levofloxacin (Table 3).
(§3) Reference strains (Escherichia coli ATCC 25922, Pseudomonas aeruginosa ATCC 27853, Staphylococus aureus ATCC 25923 and Chryseobacterium meningosepticum CCUG 4310) and several recent clinical isolates (including multidrug-resistant ones) of various species (Table 2) were used for conventional susceptibility testing experiments. Minimum Inhibitory Concentration (MIC) was determined by a standard microdilution assay as recommended by the National Commitee for Clinical Laboratory Standards (NCCLS) using cation-supplemented Mueller-Hinton (MH) broth (Oxoid Ltd. Basingstoke, UK) and a bacterial inoculum of 5×10^4 CFU per well, in a final volume of 100 μl. Results were recorded by visual inspection after 24 h of incubation at 37° C.

[4] = test system: Escherichia coli ATCC 25922; format: cell-based; details: Escherichia coli ATCC 25922, reference strain
Source text: as §2, §3

[5] = test system: Escherichia coli W99FI0077; format: cell-based; details: Escherichia coli W99FI0077, FQR ESCR (ESBL/SHV type)
Source text: as §2, §3

[6] = test system: Pseudomonas aeruginosa 885149; format: cell-based; details: Pseudomonas aeruginosa 885149, FQR AGR ESCR CPR (MBL/IMP-13)
Source text: as §2, §3

[7] = test system: Staphylococcus aureus ATCC 25923; format: cell-based; details: Staphylococcus aureus ATCC 25923, reference strain
Source text: as §2, §3

[8] = test system: Pseudomonas aeruginosa 891; format: cell-based; details: Pseudomonas aeruginosa 891, FQR AGR ESCR CPR (MBL/VIM-2)
Source text: as §2, §3

[9] = test system: Klebsiella pneumoniae W99FI0057; format: cell-based; details: Klebsiella pneumoniae W99FI0057, ESCR (ESBL/SHV type)
Source text: as §2, §3

[10] = test system: Staphylococus aureus MIU-68A; format: cell-based, Staphylococcus aureus; details: Staphylococus aureus MIU-68A, meticillin-susceptible
Source text: as §2, §3

P. aeruginosa ATCC 27853 = assay: Minimal bactericidal concentration (MBC); format: cell-based
Procedure: as §3
(§4) The MBC was determined as recommended by the National Committee for Clinical Laboratory Standards (NCCLS) on strains of E. coli ATCC 25922 and P. aeruginosa ATCC 27853.

E. coli ATCC 25922 = assay: Minimal bactericidal concentration (MBC); format: cell-based
Procedure: as §3, §4

[11] = test system: murine macrophage cells J774 A.1; assay: Cytotoxicity test by MTT; format: cell-based, mouse
Procedure: (§5) The cytotoxicity of antibacterial MAP peptides was evaluated on different eukaryotic cell lines by a colorimetric assay (MTT). This assay measures the cells' ability to convert a soluble tetrazolium salt into an insoluble precipitate: formazan. The cytotoxicity of M1 was evaluated on murine macrophagic cells (J774 A.1), murine myeloma cells (SPO) and Chinese hamster ovary epithelium cells (CHO K1). As shown FIG. 4, even at high concentrations (1 mg/ml) M1 cytotoxicity on CHO K1 cells and on SPO cells is low (percent survival is 80-90%).
as §1

E. coli strain TG1 [12] = assay: Test of antibacterial activity (colony growth inhibition) on E. coli strain TG1; format: cell-based; details: for Antibacterial activity on E. coli TG1 colony growth: E. coli TG1, colony counting vs control without peptide
Procedure: The antimicrobic activity of the peptides in linear form (L1, L4, L5, L6) and in MAP form (M1, M4, M5, M6) was assayed on the TG1 strain of E. coli. The peptides were incubated at various concentrations (2-1-0.5-0.25-0.12 mg/ml) with cells of E. coli (OD600=0.2) for about 1 hour at 37° C. Subsequently, the cells were plated on agar at dilution such to allow counting of individual colonies. The antimicrobic activity of the synthesised peptide L 1 and M1 is shown FIG. 1 and is compared to a non correlated MAP peptide (MNC) used as negative control.
In one example, the tetrabranched MAP peptides with the amino acid sequence: QAKIRVRLSA [SEQ ID NO: 2], KIRVRLSA [SEQ ID NO: 3], QKKIRVRLSA [SEQ ID NO: 4] are used individually in a bacterial colony growth inhibition test. The test is conducted by incubating different concentrations of MAP peptides with E. coli (strain TG1) and plating bacterial cells on agar at a dilution such to allow for individual colonies counting. The following day, the number of colonies grown after treatment with the three MAP peptides is compared.
Antimicrobic tests were conducted incubating for 75 min at 37° C., 25 μL of E. coli at the OD600 of 0.2 with 25 μl of MAP peptide dissolved in PBS at the various concentrations. The different incubations were further diluted 1:1000 in 2×TY medium and 100 μl were plated on solid 2×TY medium. The plates were left overnight at 30° C. and the individual grown colonies were counted and compared with a control, not treated with MAP peptide.

E. coli strain TG1 [13] = assay: Stability of peptide in solution (time course of antibacterial activity); format: physicochemical; details: PBS 0.5 mg/ml, 1, 48 and 72 hours
Procedure: FIG. 6. Stability of M1 peptide in solution. Time course of antibacterial activity of M1 on E. coli strain TG1. MAP M1 peptide was dissolved in PBS at a concentration of 0.5 mg/ml and bactericide activity was measured 1, 48 and 72 hours after re-suspension in PBS.
FIG. 8. Stability of M4, M5 and M6 peptides in solution. Time course of antibacterial activity of M4, M5 and M6 on E. coli strain TG1. M4, M5 and M6 peptides were dissolved in PBS at a concentration of 0.5 mg/ml and bactericide activity was measured 1, 48 and 144 hours after re-suspension in PBS.

[14] = Stability to plasmatic protease (HPLC); format: in vitro ADME, human
Procedure: Since the use of peptides as therapeutic agents is severely limited by their in vivo half-life, the stability to human serum protease of the linear peptide L1 and of the MAP peptides M1, M4, M5 and M6 was evaluated. The peptides were incubated at the concentration of 10 mM with plasma and with human serum for 2 and 24 hours; the samples were subsequently analysed in HPLC on column C18 (see materials and methods) to evaluate the presence of linear and MAP peptide not digested by the protease.
The various peptides in MAP form and the linear peptide (L1) were dissolved in H2O at the concentration of 10 mM and incubated with 10 μl of plasma and human serum for 2 and 24 hours at 37° C. To each sample were added 150 μl of methanol to block the proteolytic reaction; each sample was then centrifuged at 13,000 rpm for 2 min and to the supernatant were added 0.75 ml of 0.1% trifluoroacetic acid. The samples were analysed in reverse phase HPLC on a Vydac C18 semi-preparative column using a 30 min gradient of buffer B from 20% to 95% (buffer A: 0.1% trifluoroacetic acid/water; buffer B: 0.1% trifluoroacetic acid/methanol), to evaluate the presence of linear and MAP peptide after the proteolytic treatment.

in vitro = format: cell-based
Procedure: as §5
as §1, with “Peptides, previously filtered with a 0.2 μm filter disk (Whatman), were added at various concentrations to the different cell lines and left in incubation over night at 37° C.” left out

Cytotoxicity test by MTT = format: cell-based, mouse; details: mouse, J774 A.1 murine macrophage cells
Procedure: as §5, §1

Molecule: CC[C@H](C)[C@H](NC(=O)[C@@H](N)CCCCN)C(=O)N[C@@H](CCCNC(=N)N)C(=O)N[C@H](C(=O)N[C@@H](CCCNC(=N)N)C(=O)N[C@@H](CC(C)C)C(=O)N[C@@H](CO)C(=O)N[C@@H](C)C(=O)NCCCC[C@H](NC(=O)[C@H](C)NC(=O)[C@H](CO)NC(=O)[C@H](CC(C)C)NC(=O)[C@H](CCCNC(=N)N)NC(=O)[C@@H](NC(=O)[C@H](CCCNC(=N)N)NC(=O)[C@@H](NC(=O)[C@@H](N)CCCCN)[C@@H](C)CC)C(C)C)C(=O)NCCCC[C@H](NC(=O)[C@H](CCCCNC(=O)[C@H](C)NC(=O)[C@H](CO)NC(=O)[C@H](CC(C)C)NC(=O)[C@H](CCCNC(=N)N)NC(=O)[C@@H](NC(=O)[C@H](CCCNC(=N)N)NC(=O)[C@@H](NC(=O)[C@@H](N)CCCCN)[C@@H](C)CC)C(C)C)NC(=O)[C@H](C)NC(=O)[C@H](CO)NC(=O)[C@H](CC(C)C)NC(=O)[C@H](CCCNC(=N)N)NC(=O)[C@@H](NC(=O)[C@H](CCCNC(=N)N)NC(=O)[C@@H](NC(=O)[C@@H](N)CCCCN)[C@@H](C)CC)C(C)C)C(=O)N[C@@H](C)C(=O)O)C(C)C [M5, KIRVRLSA] (I: H-KIRVRLSAKKA-OH / II: H-KIRVRLSAK / III: H-KIRVRLSA / IV: H-KIRVRLSA; amide I:9-IV:C, I:10-II:C, II:9-III:C; N-terminus assumed)
- Number of yeast colonies vs negative control [1]: did not differ from the negative control
- Toxicity for human keratinocyte HaCaT cells (MTT) [2]: low toxicity
- Toxicity for human keratinocyte HaCaT cells (MTT) ([2]; listed as KIRVRLSA): particularly resistant
- haemolysis of human erythrocytes (human erythrocytes): 19%
- MIC (Molarity) [3]: 3.8 µM (≈ 15.8 µg/mL)
- MIC (Molarity) [4]: 3.8 µM (≈ 15.8 µg/mL)
- MIC (Molarity) [5]: 31 µM (≈ 129 µg/mL)
- MIC (Molarity) [6]: 7.6 µM (≈ 31.7 µg/mL)
- MIC (Molarity) [7]: 3.1e-05 M (≈ 129 µg/mL)
- MIC (Molarity) ([7]; listed as KIRVRLSA): ~10^−5 M
- MIC (Molarity) [8]: 3.8 µM (≈ 15.8 µg/mL)
- MIC (Molarity) [9]: >31 µM
- MIC (Molarity) [10]: 31 µM (≈ 129 µg/mL)
- MBC (minimal concentration able to kill 99.9% of the inoculum) compared with MIC (P. aeruginosa ATCC 27853): equal to the calculated values of MIC
- MBC (minimal concentration able to kill 99.9% of the inoculum) compared with MIC (P. aeruginosa ATCC 27853; listed as KIRVRLSA): equal to the corresponding MIC values
- MBC (minimal concentration able to kill 99.9% of the inoculum) compared with MIC (E. coli ATCC 25922): equal to the calculated values of MIC
- MBC (minimal concentration able to kill 99.9% of the inoculum) compared with MIC (E. coli ATCC 25922; listed as KIRVRLSA): equal to the corresponding MIC values
- Effect on cell viability (MTT) ([11]; J774.A1, overnight, 30 μg/ml): did not substantially affect cell viability
- Vitality of J774 A.1 cells as the concentration of MAP peptides increases (MTT) ([11]; J774 A.1): decreases
- Antibacterial activity on E. coli TG1 colony growth (E. coli strain TG1 [12]): good antibacterial activity

Molecule: I: QEKIRVRLSAKKA-OH / II: QEKIRVRLSAK / III: QEKIRVRLSA / IV: QEKIRVRLSA (amide I:11-IV:C, I:12-II:C, II:11-III:C) [M1]
- Stability in solution: antibacterial activity over time after resuspension (E. coli strain TG1 [13]): drop in activity over time
- Resistance to plasmatic protease: Plasma 2 h [14]: +
- viability at 1000 µg/mL (in vitro; CHO K1 cells (Chinese hamster ovary epithelium)): 80 to 90%
- viability at 1000 µg/mL (in vitro; mouse, SPO murine myeloma cells): 80 to 90%
- viability at 1000 µg/mL (Cytotoxicity test by MTT): ~50%
- Concentration down to which TG1 E. coli colony growth is prevented (E. coli strain TG1 [12]; E. coli TG1, MAP form): less effective
- Antibacterial activity on E. coli TG1 colony growth (E. coli strain TG1 [12]): inhibited significantly
